{"source": "paper PMC5047057", "about": "(Oral oncology, 2016)", "key": {"[1]": {"experiment": "clinical", "design": "species or system human", "conditions": "in vivo; for Tmax / AUC(0-t) / Cmax: human, po; for AUC(0-t): AUC0-24h"}, "[2]": {"system": "patients with Rb-positive cancers", "conditions": "cited from earlier work"}, "[3]": {"system": "Rb-positive cell lines", "conditions": "cited from earlier work"}, "[4]": {"system": "patients with recurrent/metastatic head and neck squamous cell carcinoma (HNSCC)"}, "[5]": {"system": "Rb-negative tumor xenografts", "conditions": "cited from earlier work"}, "[6]": {"conditions": "Palbociclib 125 mg (n=6 pts) with weekly cetuximab, all cycles"}}}
{"smiles": "CC(=O)c1c(C)c2cnc(Nc3ccc(N4CCNCC4)cn3)nc2n(C2CCCC2)c1=O", "note": "[palbociclib]", "values": [{"measurement": "Tmax", "setting": "[1]; 100 mg", "value": 8, "unit": "h"}, {"measurement": "AUC(0-t)", "setting": "[1]; 100 mg", "value": 1480, "unit": "ng·h/mL"}, {"measurement": "Cmax", "setting": "[1]; 100 mg", "value": 70, "unit": "ng/mL"}, {"measurement": "Tmax", "setting": "[1]; 100 mg, Tmax", "value": 8, "unit": "h"}, {"measurement": "AUC(0-t)", "setting": "[1]; 125 mg", "value": 2230, "unit": "ng·h/mL"}, {"measurement": "Cmax", "setting": "[1]; 125 mg", "value": 145, "unit": "ng/mL"}, {"measurement": "Tmax", "setting": "[1]; 125 mg, Tmax", "value": 8, "unit": "h"}, {"measurement": "Dose-normalized Cmax and AUC0-24h, 100 vs 125 mg daily oral doses", "setting": "[1]", "value": "comparable"}, {"measurement": "Systemic exposure versus dose", "setting": "[2]; dose range of 25-150 mg", "value": "dose proportionality"}, {"measurement": "Maximum tolerated dose (MTD)", "setting": "[2]; once daily, administered for 21 days of each 28 day cycle, monotherapy", "value": 125, "unit": "mg"}, {"measurement": "Dose-limiting toxicity (DLT)", "setting": "[2]; palbociclib monotherapy phase I trials", "value": "neutropenia"}, {"measurement": "Anti-proliferative effects", "setting": "[3]", "value": "potent anti-proliferative effects"}, {"measurement": "Acneiform Rash, Grade 3 (number of patients)", "setting": "[4]; [6]", "value": 0}, {"measurement": "Acneiform Rash, Grades 1-2 (number of patients)", "setting": "[4]; [6]", "value": 5}, {"measurement": "Anemia, Grade 3 (number of patients)", "setting": "[4]; [6]", "value": 0}, {"measurement": "Anemia, Grades 1-2 (number of patients)", "setting": "[4]; [6]", "value": 6}, {"measurement": "Diarrhea, Grade 3 (number of patients)", "setting": "[4]; [6]", "value": 0}, {"measurement": "Diarrhea, Grades 1-2 (number of patients)", "setting": "[4]; [6]", "value": 1}, {"measurement": "Fatigue, Grade 3 (number of patients)", "setting": "[4]; [6]", "value": 0}, {"measurement": "Fatigue, Grades 1-2 (number of patients)", "setting": "[4]; [6]", "value": 3}, {"measurement": "Hypomagnesemia, Grade 3 (number of patients)", "setting": "[4]; [6]", "value": 0}, {"measurement": "Hypomagnesemia, Grades 1-2 (number of patients)", "setting": "[4]; [6]", "value": 2}, {"measurement": "Infusion Reaction, Grade 3 (number of patients)", "setting": "[4]; [6]", "value": 0}, {"measurement": "Infusion Reaction, Grades 1-2 (number of patients)", "setting": "[4]; [6]", "value": 1}, {"measurement": "Nausea, Grade 3 (number of patients)", "setting": "[4]; [6]", "value": 0}, {"measurement": "Nausea, Grades 1-2 (number of patients)", "setting": "[4]; [6]", "value": 2}, {"measurement": "Neutropenia, Grade 3 (number of patients)", "setting": "[4]; [6]", "value": 2}, {"measurement": "Neutropenia, Grades 1-2 (number of patients)", "setting": "[4]; [6]", "value": 2}, {"measurement": "Thrombocytopenia, Grade 3 (number of patients)", "setting": "[4]; [6]", "value": 0}, {"measurement": "Thrombocytopenia, Grades 1-2 (number of patients)", "setting": "[4]; [6]", "value": 3}, {"measurement": "Vomiting, Grade 3 (number of patients)", "setting": "[4]; [6]", "value": 0}, {"measurement": "Vomiting, Grades 1-2 (number of patients)", "setting": "[4]; [6]", "value": 1}, {"measurement": "Palbociclib dose recommended for phase II trials", "setting": "[4]; days 1-21 of a 28 day cycle with standard doses of weekly cetuximab", "value": 125, "unit": "mg/day"}, {"measurement": "Intra-patient dose reductions", "setting": "[4]; in vivo", "value": "did not occur"}, {"measurement": "Most common AE", "setting": "[4]; in vivo", "value": "Myelosuppression"}, {"measurement": "Maximum tolerated dose (MTD)", "setting": "[4]; palbociclib up to 125 mg/day days 1-21 of 28 with standard weekly cetuximab", "value": "not reached"}, {"measurement": "Activity in xenografts", "setting": "[5]", "value": "no activity"}]}
